The values that follow come from ChEMBL document CHEMBL4819085, “Dipyridyl-substituted thiosemicarbazone as a potent broad-spectrum inhibitor of metallo-β-lactamases” (Bioorg Med Chem, 2021).

The test system of assay [1] is Escherichia coli. In words: Inhibition of Escherichia coli ImiS assessed as potentiation of meropenem-induced antibacterial activity by measuring meropenem MIC incubated for 24 hrs by broth microdilution method. On the technique in general: Dilution methods test growth across graded concentrations, often in twofold steps.
Assay [2] deals with Escherichia coli. In words: Bactericidal activity against Escherichia coli producing NDM-1 assessed as reduction in bacterial viability upto 64 ug/ml incubated for 12 hrs by time kill assay. It is filed as functional. As to conditions: dose microg/ml <=64.
For assay [3], the system named is Escherichia coli. The experiment in a line: Inhibition of Escherichia coli L1 assessed as potentiation of meropenem-induced antibacterial activity by measuring fold reduction in meropenem MIC up to 8 ug/ml incubated for 24 hrs by broth microdilution method relative to meropenem alone. As to conditions: dose microg/ml <=8, time 24.0 hrs.
Assay [4] has as its system Bacteria. The experiment in a line: (§1) Inhibition of bacterial NDM-1 expressed in Escherichia coli BL21 (DE3) using meropenem as substrate incubated for 1 hr by spectrometry analysis.
Assay [5] is described as follows: as §1. More on the design: species or system Bacteria.
For assay [6], the system named is Bacteria. In words: Inhibition of bacterial L1 at 20 uM using meropenem as substrate incubated for 1 hr by spectrometry analysis relative to control.
Assay [7] concerns Klebsiella pneumoniae. The experiment in a line: In vivo antibacterial activity against Klebsiella pneumoniae producing NDM-1 infected in mouse assessed as reduction in bacterial load in liver at 2 mg/kg, ip. The assay is classed as functional, organism-based.
Assay [8] relates to Bacteria. In words: Inhibition of bacterial ImiS expressed in Escherichia coli BL21 (DE3) at 20 uM using meropenem as substrate incubated for 1 hr by spectrometry analysis relative to control.
For assay [9], the system named is Escherichia coli. In words: Inhibition of Escherichia coli IMP-1 assessed as potentiation of meropenem-induced antibacterial activity by measuring fold reduction in meropenem MIC up to 8 ug/ml incubated for 24 hrs by broth microdilution method relative to meropenem alone. The conditions noted are these: dose microg/ml <=8, time 24.0 hrs.
Assay [10] deals with Escherichia coli. In words: Antibacterial activity against Escherichia coli producing NDM-1 assessed as zone of inhibition in presence of meropenem (reference value: 23.5 millimeter). The assay is classed as functional.
In assay [11] the test system is Escherichia coli. In words: Antibacterial activity against Escherichia coli producing L1 assessed as fractional inhibitory concentration index incubated for 24 hrs in presence of meropenem by checkerboard assay. It is filed as functional, organism-based.
Assay [12] has as its system Bacteria. In words: Reversible inhibition of bacterial NDM-1 assessed as residual activity at 50 uM incubated for 6 hrs by dialysis method relative to control.
Assay [13] is described as follows: Binding affinity to Zn2+ ion assessed as UV absorption peak at 325 nm at 50 uM incubated for 5 mins in presence of ZnCl2 by spectrometry analysis.
Assay [14] deals with Escherichia coli. The experiment in a line: Potentiation of meropenem-induced antibacterial activity against Escherichia coli 24 assessed as fold reduction in meropenem MIC incubated for 24 hrs by broth microdilution method relative to meropenem alone. It is filed as functional.
The test system of assay [15] is Escherichia coli. The experiment in a line: Antibacterial activity against Escherichia coli 08 assessed as reduction in bacterial growth incubated for 24 hrs by broth microdilution method. The assay is classed as functional.
Assay [16] has as its system Escherichia coli. In words: Antibacterial activity against Escherichia coli 01 assessed as reduction in bacterial growth incubated for 24 hrs by broth microdilution method. The assay is classed as functional.
Assay [17] concerns Staphylococcus aureus. The experiment in a line: Antibacterial activity against methicillin-resistant Staphylococcus aureus assessed as reduction in bacterial growth incubated for 24 hrs by broth microdilution method. The assay is classed as functional.
Assay [18] concerns Escherichia coli. In words: Potentiation of meropenem-induced antibacterial activity against Escherichia coli 08 assessed as meropenem MIC incubated for 24 hrs by broth microdilution method. The assay is classed as functional.
Assay [19] has as its system Bacteria. The experiment in a line: (§2) Inhibition of bacterial L1 using meropenem as substrate incubated for 1 hr by spectrometry analysis.
The nature of assay [20]: as §2. The arrangement: species or system Bacteria.
For assay [21], the system named is Escherichia coli. The experiment in a line: Synergistic antibacterial activity against Escherichia coli at 16 ug/ml in presence of meropenem. It is filed as functional, organism-based. As to conditions: dose 16.0 µg/ml.
The subject of assay [22] is Escherichia coli. The experiment in a line: Inhibition of Escherichia coli NDM-1 assessed as bacterial growth rate in presence of ZnCl2 and meropenem relative to control. More on the design: scale not given: the % may be the effect or the level left.
Assay [23] has as its system Klebsiella pneumoniae. In words: In vivo antibacterial activity against Klebsiella pneumoniae producing NDM-1 infected in mouse assessed as reduction in bacterial load in spleen at 2 mg/kg, ip. The assay is classed as functional, organism-based.
The subject of assay [24] is Klebsiella pneumoniae. In words: Antibacterial activity against Klebsiella pneumoniae assessed as fractional inhibitory concentration index incubated for 24 hrs in presence of meropenem by checkerboard assay. It is filed as functional.

In brackets after ≈: the same amount, converted by molar mass. Activity calls are given as the source filed them. The rule behind the calls is not given here.

The term inhibition denotes how much of the control response was suppressed. For orientation: IC50 means the midpoint of a concentration-inhibition curve. With `CN(C(=S)NN=C(c1ccccn1)c1ccccn1)C1CCCCC1`, the MIC was found to be 4 mg/L in assay [1]; 16 mg/L (≈ 45.3 µM) in assay [15]; 16 mg/L (≈ 45.3 µM) in assay [16]; 32 mg/L (≈ 90.5 µM) in [17]; 32 mg/L in assay [18]. Further, the “inhibition (INH)” value in assay [2] turned out to be 99%. For the same molecule, the values for the fold change (FC) in [3], in assay [9] and in assay [14] were 4, 8 and 2, respectively. The inhibition entry in assay [4] was “Dose-Dependent Effect”; in assay [6], above 90%; in assay [8], above 90%; in [19] it was “Dose-Dependent Effect”. Moreover, the IC50 in assay [5] stood at 0.021 µM; in assay [20], 1.08 µM. Also, the inhibition entry in [7] and in assay [23] was “inactive” each time. Also, in assay [10], the “inhibition zone (IZ)” value turned out to be 30.1 mm. In addition, the outcome in assay [11] was inactive. Besides, the Activity came out at 70% in [12] and 65% in assay [22]. Also, the result in assay [13] and in assay [21] was Active. The FIC in assay [24] is 0.313.
